According to US4410544A, “Platinum-diamine complexes, a method for the preparation of a medicine using such a platinum-diamine complex for the treatment of malignant tumor in mice” (priority 1978, dated 1983):

Experiments:
[1] = system: P 388 lymphocytic leukemia (PS); experiment: Anti-cancerous activity in mice, P 388 lymphocytic leukemia (PS); format: in vivo, mouse; settings: CD2 F1 mice
Excerpt: (§1) An extensive research program carried out by the National Cancer Institute, Bethesda, Md., and the European Organization for Research on the Treatment of Cancer, Brussels, Belgium, has shown that when compared to PDD, compounds according to this invention, particularly compounds having the following formulas display a high therapeutic activity against a great number of different mammalian types of tumor, such as P 388 lymphocytic leukemia (PS), L-1210 lymphoid leukemia (LE), ependymoblastoma (EM), B 16 melanocarcinoma (B1) and a line of L-1210 leukemia resistant to cis-PDD (LE/cis-PDD): [drawing 9]
(§2) More detailed information concerning the testing procedure and their interpretation are contained in Instruction 14, Screening Data Summary, Interpretation and Outline of Current Screen, Drug Evaluation Branch, National Cancer Institute, Bethesda, Md., 20014 (1977) which is incorporated herein by reference.
(§3) *Period of survival is the ratio of survival times of the treated mice (T
(§4) to untreated mice (C); the therapeutic activity is significant at T/C
(§5) ≥ 125. The figures include dying mice only. A cure is defined as a
(§6) mouse free of tumors 45 days after injection, as determined by visual

[2] = system: L-1210 lymphoid leukemia (LE); experiment: Anti-cancerous activity in mice, L-1210 lymphoid leukemia (LE); format: in vivo, mouse
Excerpt: as §1, §2, §3, §4, §5, §6
(§7) **For Formula 12-cis PDD the mice were injected with 10^6 L1210
(§8) ascites cells. One I.P. injection of the test compound was given to each

ependymoblastoma (EM) = experiment: Anti-cancerous activity in mice, ependymoblastoma (EM); format: in vivo, mouse
Excerpt: as §1, §2, §3, §4, §5, §6

[3] = system: B 16 melanocarcinoma (B1); experiment: Anti-cancerous activity in mice, B 16 melanocarcinoma (B1); format: in vivo, mouse; settings: B16, B6 D2 (BDF) mice
Excerpt: as §1, §2, §3, §4, §5, §6

[4] = Lethal doses LD10 / LD50 given with the BUN test in the rat
[5] = system: L-1210 leukemia resistant to cis-PDD (LE/cis-PDD); experiment: Anti-cancerous activity in mice, L-1210 leukemia resistant to cis-PDD (LE/cis-PDD); format: in vivo, mouse; settings: for cures (mice free of tumors 45 days after injection) / T/C (period of survival, treated/untreated): LE/cis PDD, BDF1 mice; for cures (mice free of tumors 45 days after injection): of six mice; for T/C (period of survival, treated/untreated): one I.P. injection; for effectiveness against the cis-PDD resistant line of L-1210 versus the parent line: mice
Excerpt: as §1, §2, §3, §4, §5, §6, §7, §8

[6] = literature; cited from earlier work
[7] = literature; cited from earlier work; remark: listed apart in the source
[8] = Urea-nitrogen in the blood after administering platinum complexes (in the rat); format: in vivo
Protocol: Percentage of urea-nitrogen in the blood after
administering platinum complexes (in the rat).
Both at doses corresponding with the LD10 -amount and at those corresponding with the LD50 -amount the urea-nitrogen contents in the blood are identical to the control values. BUN values≥30 mg% are generally considered indicative of drug-induced nephrotoxicity. […] In was found by means of a histological examination of rats after treatment with toxic doses of compounds of this invention, that these compounds display little or no kidney toxicity.

mammalian types of tumor = experiment: Therapeutic activity against mammalian tumors (NCI / EORTC program); format: in vivo, mouse; settings: mice; Table A experiments
Excerpt: as §1, §2

cancer = settings: literature, cited from earlier work
[9] = 6.25 mg/kg per injection, significant at T/C ≥ 125
[10] = CD2 F1 mice, 12.50 mg/kg per injection
[11] = BDF1 mice, 50.00 mg/kg, one I.P. injection, 10^6 L1210 ascites cells

## NCC1(CN)CCCCC1.[Cl][Pt][Cl] [Formula 4, Cis-dichloro-1,1-di(aminomethyl)cyclohexane platinum(II)]
[1]; 1.56 mg/kg per injection
  T/C (period of survival, treated/untreated): 153%
[1]; 3.12 mg/kg per injection
  T/C (period of survival, treated/untreated): 181%
[1]; [9]
  T/C (period of survival, treated/untreated): 201%
[2]; CD2 F1 mice, 3.12 mg/kg per injection
  T/C (period of survival, treated/untreated): 145%
[2]; CD2 F1 mice, 6.25 mg/kg per injection
  T/C (period of survival, treated/untreated): 180%
[2]; [10]
  T/C (period of survival, treated/untreated): 234%
Ependymoblastoma (EM); C57BL/6 mice, 6.00 mg/kg per injection
  T/C (period of survival, treated/untreated): 126%
[3]; 1.50 mg/kg per injection
  T/C (period of survival, treated/untreated): 190%
[3]; 3.00 mg/kg per injection
  T/C (period of survival, treated/untreated): 208%
[3]; 6.00 mg/kg per injection
  T/C (period of survival, treated/untreated): 208%
[4]
  LD10: 8 mg/kg
  LD50: 15 mg/kg

## NCC1(CN)CCCCC1.O=C1[O][Pt][O]C(=O)C12CCCCC2 [Formula 7, Cis-cyclopentamethylene malonato-1,1-di(aminomethyl)cyclohexane platinum(II)]
[1]; [9]
  T/C (period of survival, treated/untreated): 162%
[1]; 12.50 mg/kg per injection
  T/C (period of survival, treated/untreated): 177%
[1]; 25.00 mg/kg per injection
  T/C (period of survival, treated/untreated): 226%
[2]; CD2 F1 mice, 80.00 mg/kg per injection
  T/C (period of survival, treated/untreated): 138%
Ependymoblastoma (EM); 57BL/6 mice, 6.25 mg/kg per injection
  T/C (period of survival, treated/untreated): 130%
Ependymoblastoma (EM); 57BL/6 mice, 12.50 mg/kg per injection
  T/C (period of survival, treated/untreated): 163%

## CCC(C)(CN)CN.[Cl][Pt][Cl] [Formula 8, Cis-dichloro-(2-methyl-2-ethyl)-1,3-propane diamine platinum (II)]
[2]; [10]
  T/C (period of survival, treated/untreated): 289%

## CCC(CC)(CN)CN.[Cl][Pt][Cl] [Formula 9, Cis-dichloro-2,2-diethyl-1,3-propane diamine platinum(II)]
[2]; [10]
  T/C (period of survival, treated/untreated): 323%

## NCC1(CN)CCCC1.[Cl][Pt][Cl] [Formula 10, Cis-dichloro-1,1-di(aminomethyl)cyclopentane platinum(II)]
[2]; [10]
  T/C (period of survival, treated/untreated): 148%

## NCC1(CN)CCCCC1.O=S(=O)([O-])[O-].[Pt+2] [Formula 11, Cis-1,1-di(aminomethyl)cyclohexane platinum(II) sulphate]
[2]; [10]
  T/C (period of survival, treated/untreated): 274%

## NCC1(CN)CCC1.[Cl-].[Cl-].[Pt+2] [Formula 12, Cis-dichloro-1,1-di(aminomethyl)cyclobutane platinum(II)]
[2]; BDF1 mice, 15.00 mg/kg, one I.P. injection, 10^6 L1210 ascites cells
  T/C (period of survival, treated/untreated): 208%

## NCC(CN)(Cc1ccccc1)Cc1ccccc1.[Cl][Pt][Cl] [Formula 13, Cis-dichloro-2,2-dibenzyl-1,3-propane diamine platinum(II)]
[2]; [11]
  T/C (period of survival, treated/untreated): 135%

## CC(C)C(CN)(CN)C(C)C.[Cl-].[Cl-].[Pt+2] [Formula 14, Cis-dichloro-2,2-diisopropyl-1,3-propane diamine platinum(II)]
[2]; [11]
  T/C (period of survival, treated/untreated): 178%

## NCC1(CN)CCCCC1.O=C(O)c1ccc2c(c1)C(=O)[O][Pt][O]C2=O [Formula 15, Cis-4-carboxyphthalato-1,1-di(aminomethyl)-cyclohexane platinum (II)]
[2]; BDF1 mice, 40.00 mg/kg, one I.P. injection, 10^6 L1210 ascites cells
  T/C (period of survival, treated/untreated): 200%

## NCC1(CN)CCCCC1.O=C(CCl)[O][Pt][O]C(=O)CCl [Formula 16, Cis-1,1-di(aminomethyl)-cyclohexane-bis(chloroacetato)platinum(II)]
[2]; BDF1 mice, 6.00 mg/kg, one I.P. injection, 10^6 L1210 ascites cells
  T/C (period of survival, treated/untreated): 207%

## CCC(CC)(CN)CN.O=S(=O)([O-])[O-].[Pt+2] [Formula 17, Cis-2,2-diethyl-1,3-propanediamine platinum(II) sulphate]
[2]; BDF1 mice, 12.00 mg/kg, one I.P. injection, 10^6 L1210 ascites cells
  T/C (period of survival, treated/untreated): 200%
[5]; 6.00 mg/kg
  cures (mice free of tumors 45 days after injection): 3/6
  T/C (period of survival, treated/untreated): > 500%
[5]
  effectiveness against the cis-PDD resistant line of L-1210 versus the parent line: even more effective against the cis-PDD resistant line of L-1210 than they are against the parent line of L-1210

## NCC1(CN)CCCCC1.O=C([O-])CC(=O)[O-].[Pt+2] [Formula 18, Cis-1,1-di(aminomethyl)-cyclohexanemalonato platinum(II)]
[2]; BDF1 mice, 64.00 mg/kg, of six mice
  cures (mice free of tumors 45 days after injection): 1/6
[2]; BDF1 mice, 64.00 mg/kg, one I.P. injection, dying mice only
  T/C (period of survival, treated/untreated): 200%
[5]; 16.00 mg/kg
  T/C (period of survival, treated/untreated): 230%
[5]
  effectiveness against the cis-PDD resistant line of L-1210 versus the parent line: even more effective against the cis-PDD resistant line of L-1210 than they are against the parent line of L-1210

## NCC1(CN)CCCCC1.O=C1[O][Pt][O]C(=O)C1O [Formula 19, Cis-1,1-di(aminomethyl)cyclohexanehydroxymalonato platinum(II)]
[2]; BDF1 mice, 36.00 mg/kg, one I.P. injection, 10^6 L1210 ascites cells
  T/C (period of survival, treated/untreated): 246%
[5]; 24.00 mg/kg
  cures (mice free of tumors 45 days after injection): 3/6
  T/C (period of survival, treated/untreated): > 500%
[5]
  effectiveness against the cis-PDD resistant line of L-1210 versus the parent line: even more effective against the cis-PDD resistant line of L-1210 than they are against the parent line of L-1210

## cis-dichlorobiscyclopentyl amine platinum(II)
[6]
  kidney toxicity: only slightly toxic to the kidneys
[7]
  spleen toxicity: toxic to the spleen

## cis-platinum diamine dichloride [PDD]
[2]; BDF1 mice, 8.00 mg/kg, one I.P. injection, 10^6 L1210 ascites cells
  T/C (period of survival, treated/untreated): 183%
[3]; 2.00 mg/kg per injection
  T/C (period of survival, treated/untreated): 197%
[5]; 4-8 mg/kg
  T/C (period of survival, treated/untreated): 106-121%
[8]; 3 mg/kg (LD10), 0 days after injection
  Percentage of urea-nitrogen in blood: 10%
[8]; 3 mg/kg (LD10), 2 days after injection
  Percentage of urea-nitrogen in blood: 13%
[8]; 3 mg/kg (LD10), 4 days after injection
  Percentage of urea-nitrogen in blood: 52%
[8]; 7.6 mg/kg (LD50), 0 days after injection
  Percentage of urea-nitrogen in blood: 10%
[8]; 7.6 mg/kg (LD50), 2 days after injection
  Percentage of urea-nitrogen in blood: 78%
[8]; 7.6 mg/kg (LD50), 4 days after injection
  Percentage of urea-nitrogen in blood: 148%
[8]; LD10 dose, 4 days after injection
  increase in the urea nitrogen content: about a quadruple increase
Mammalian types of tumor
  complete cures: not observed
cancer
  therapeutic index: low therapeutic index
cancer; treatment of cancer
  toxicity: Toxicity is a very serious drawback
[4]
  LD10: 3 mg/kg
  LD50: 7.6 mg/kg
